{"source": "paper PMC2826609", "about": "(Peptides, 2009)", "key": {"[1]": {"target": "Aedes aegypti allatostatin-C receptor AeAS-CrA (Aedes aegypti, UniProt A0A411JKC3)", "assay_type": "cell-based"}, "[2]": {"target": "Aedes aegypti allatostatin-C receptor AeAS-CrB (Aedes aegypti, UniProt A0A411JKA7)", "assay_type": "cell-based"}}, "note": "Positions of bridges follow the written chain, without caps; N, C: chain ends. Residues, ends and D or L forms follow the SMILES beside them."}
{"molecule": "APFRNSEMMTARGF [AT]", "values": [{"measurement": "FLIPR signal, peptide selectivity (AeAS-CrA)", "setting": "[1]; AeAS-CrA, HEK293T/Gα16gust44 cells, results not shown", "result": "no signal was detected"}, {"measurement": "FLIPR signal, peptide selectivity (AeAS-CrB)", "setting": "[2]; AeAS-CrB, HEK293T/Gα16gust44 cells, results not shown", "result": "no signal was detected"}]}
{"molecule": "CC[C@H](C)[C@H](NC(=O)[C@@H](N)CCC(N)=O)C(=O)N[C@@H](CCCNC(=N)N)C(=O)N[C@@H](Cc1ccc(O)cc1)C(=O)N[C@@H](CCCNC(=N)N)C(=O)N[C@@H](CCC(N)=O)C(=O)N[C@H]1CSSC[C@@H](C(=O)N[C@@H](Cc2ccccc2)C(=O)O)NC(=O)[C@H](CO)NC(=O)[C@H]([C@@H](C)CC)NC(=O)[C@@H]2CCCN2C(=O)[C@H](CC(N)=O)NC(=O)[C@H](Cc2ccccc2)NC(=O)[C@H](Cc2ccc(O)cc2)NC1=O", "note": "[AS-C] (H-QIRYRQCYFNPISCF-OH; disulfide 7-14)", "values": [{"measurement": "EC50", "setting": "[1]", "result": "89 ± 18.5", "unit": "nM"}, {"measurement": "EC50", "setting": "[2]", "result": "27.7 ± 7.2", "unit": "nM"}]}
